What was measured:
Format in all cases: functional
Clostridioides difficile [1] = experiment: Antimicrobial activity against daptomycin-resistant Clostridium difficile ATCC 43596 infected in Syrian golden hamster model of Clostridium difficile-associated diarrhea assessed as protection against microbial infection by measuring survival at day 25 to 26 at 0.5 mg/kg treated once daily for 5 consecutive days starting 4 hrs after spore inoculation
Clostridioides difficile [2] = experiment: Potency index, ratio of MIC for daptomycin to MIC for test compound against daptomycin-resistant Clostridium difficile NAP1 incubated anaerobically at 37 degC for 48 hrs by agar dilution method
Staphylococcus aureus [3] = experiment: Antimicrobial activity against daptomycin-non-susceptible Staphylococcus aureus 5076 incubated anaerobically at 37 degC for 48 hrs by agar dilution method; details: Staphylococcus aureus, 5076, 48 h
Staphylococcus aureus [4] = experiment: Potency index, ratio of MIC for daptomycin to MIC for test compound against daptomycin-non-susceptible Staphylococcus aureus 5016 incubated anaerobically at 37 degC for 48 hrs by agar dilution method
Staphylococcus aureus [5] = experiment: Potency index, ratio of MIC for daptomycin to MIC for test compound against daptomycin-non-susceptible Staphylococcus aureus 5004 incubated anaerobically at 37 degC for 48 hrs by agar dilution method
Staphylococcus aureus [6] = experiment: Potency index, ratio of MIC for daptomycin to MIC for test compound against daptomycin-non-susceptible Staphylococcus aureus 399 incubated anaerobically at 37 degC for 48 hrs by agar dilution method
Staphylococcus aureus [7] = experiment: Potency index, ratio of MIC for daptomycin to MIC for test compound against daptomycin-non-susceptible Staphylococcus aureus 1179 incubated anaerobically at 37 degC for 48 hrs by agar dilution method
Staphylococcus aureus [8] = experiment: Antimicrobial activity against daptomycin-non-susceptible Staphylococcus aureus 1146 incubated anaerobically at 37 degC for 48 hrs by agar dilution method; details: Staphylococcus aureus, 1146, 48 h
Staphylococcus aureus [9] = experiment: Potency index, ratio of MIC for daptomycin to MIC for test compound against daptomycin-non-susceptible Staphylococcus aureus 278 incubated anaerobically at 37 degC for 48 hrs by agar dilution method
Staphylococcus aureus [10] = experiment: Potency index, ratio of MIC for daptomycin to MIC for test compound against daptomycin-non-susceptible Staphylococcus aureus 5081 incubated anaerobically at 37 degC for 48 hrs by agar dilution method
Staphylococcus aureus [11] = experiment: Antimicrobial activity against daptomycin-non-susceptible Staphylococcus aureus 5059 incubated anaerobically at 37 degC for 48 hrs by agar dilution method; details: Staphylococcus aureus, 5059, 48 h
Staphylococcus aureus [12] = experiment: Potency index, ratio of MIC for daptomycin to MIC for test compound against daptomycin-non-susceptible Staphylococcus aureus 1146 incubated anaerobically at 37 degC for 48 hrs by agar dilution method
Enterococcus faecalis = experiment: Antimicrobial activity against daptomycin-resistant Enterococcus faecalis ATCC 49452 incubated anaerobically at 37 degC for 48 hrs by agar dilution method; details: ATCC 49452, 48 h
Staphylococcus aureus [13] = experiment: Antimicrobial activity against daptomycin-non-susceptible Staphylococcus aureus 1616 incubated anaerobically at 37 degC for 48 hrs by agar dilution method; details: Staphylococcus aureus, 1616, 48 h
Enterococcus faecium = experiment: Potency index, ratio of MIC for daptomycin to MIC for test compound against Enterococcus faecium ATCC 6569 incubated anaerobically at 37 degC for 48 hrs by agar dilution method
Staphylococcus aureus [14] = experiment: Antimicrobial activity against daptomycin-non-susceptible Staphylococcus aureus 5091 incubated anaerobically at 37 degC for 48 hrs by agar dilution method; details: Staphylococcus aureus, 5091, 48 h
Staphylococcus aureus [15] = experiment: Antimicrobial activity against daptomycin-non-susceptible Staphylococcus aureus 1326 incubated anaerobically at 37 degC for 48 hrs by agar dilution method; details: Staphylococcus aureus, 1326, 48 h
Clostridioides difficile [16] = experiment: Antimicrobial activity against metronidazole-resistant Clostridium difficile
Staphylococcus aureus [17] = experiment: Potency index, ratio of MIC for daptomycin to MIC for test compound against daptomycin-non-susceptible Staphylococcus aureus 5030 incubated anaerobically at 37 degC for 48 hrs by agar dilution method
Staphylococcus aureus [18] = experiment: Antimicrobial activity against daptomycin-non-susceptible Staphylococcus aureus 5080 incubated anaerobically at 37 degC for 48 hrs by agar dilution method; details: Staphylococcus aureus, 5080, 48 h
Staphylococcus aureus [19] = experiment: Potency index, ratio of MIC for daptomycin to MIC for test compound against daptomycin-non-susceptible Staphylococcus aureus 1616 incubated anaerobically at 37 degC for 48 hrs by agar dilution method
Staphylococcus aureus [20] = experiment: Antimicrobial activity against daptomycin-non-susceptible Staphylococcus aureus 399 incubated anaerobically at 37 degC for 48 hrs by agar dilution method; details: Staphylococcus aureus, 399, 48 h
Staphylococcus aureus [21] = experiment: Potency index, ratio of MIC for daptomycin to MIC for test compound against daptomycin-non-susceptible Staphylococcus aureus 5034 incubated anaerobically at 37 degC for 48 hrs by agar dilution method
Staphylococcus aureus [22] = experiment: Antimicrobial activity against daptomycin-non-susceptible Staphylococcus aureus 5008 incubated anaerobically at 37 degC for 48 hrs by agar dilution method; details: Staphylococcus aureus, 5008, 48 h
Staphylococcus aureus [23] = experiment: Potency index, ratio of MIC for daptomycin to MIC for test compound against daptomycin-non-susceptible Staphylococcus aureus 5059 incubated anaerobically at 37 degC for 48 hrs by agar dilution method
Staphylococcus aureus [24] = experiment: Antimicrobial activity against daptomycin-non-susceptible Staphylococcus aureus 278 incubated anaerobically at 37 degC for 48 hrs by agar dilution method; details: Staphylococcus aureus, 278, 48 h
Staphylococcus aureus [25] = experiment: Antimicrobial activity against daptomycin-non-susceptible Staphylococcus aureus 5081 incubated anaerobically at 37 degC for 48 hrs by agar dilution method; details: Staphylococcus aureus, 5081, 48 h
Staphylococcus aureus [26] = experiment: Potency index, ratio of MIC for daptomycin to MIC for test compound against daptomycin-non-susceptible Staphylococcus aureus 5012 incubated anaerobically at 37 degC for 48 hrs by agar dilution method
Staphylococcus aureus [27] = experiment: Antimicrobial activity against daptomycin-non-susceptible Staphylococcus aureus 5030 incubated anaerobically at 37 degC for 48 hrs by agar dilution method; details: Staphylococcus aureus, 5030, 48 h
Staphylococcus aureus [28] = experiment: Antimicrobial activity against daptomycin-non-susceptible Staphylococcus aureus 5003 incubated anaerobically at 37 degC for 48 hrs by agar dilution method; details: Staphylococcus aureus, 5003, 48 h

CCCCCc1ccc(/C(C)=C/C(=O)N[C@@H](Cc2c[nH]c3ccccc23)C(=O)N[C@H](CC(N)=O)C(=O)N[C@@H](CC(=O)O)C(=O)N[C@@H]2C(=O)NCC(=O)N[C@@H](CCCN)C(=O)N[C@@H](CC(=O)O)C(=O)N[C@H](C)C(=O)N[C@@H](CC(=O)O)C(=O)NCC(=O)N[C@H](CO)C(=O)N[C@@H]([C@@H](C)CC(=O)O)C(=O)N[C@@H](CC(=O)c3ccccc3N)C(=O)O[C@@H]2C)cc1
0.125 µg/mL: MIC (Staphylococcus aureus [20])
2 µg/mL: MIC (Staphylococcus aureus [13])
1 µg/mL: MIC (Staphylococcus aureus [11]) | MIC (Staphylococcus aureus [18]) | MIC (Staphylococcus aureus [24]) | MIC (Staphylococcus aureus [25]) | MIC (Staphylococcus aureus [27])
4: Ratio (Clostridioides difficile [2])
4 µg/mL: MIC (Enterococcus faecalis)
>8: Ratio (Enterococcus faecium)
0.25 µg/mL: MIC (Staphylococcus aureus [8]) | MIC (Staphylococcus aureus [28])
100%: survival at 0.5 mg/kg (Clostridioides difficile [1])
0.5 µg/mL: MIC (Staphylococcus aureus [3]) | MIC (Staphylococcus aureus [14]) | MIC (Staphylococcus aureus [15]) | MIC (Clostridioides difficile [16]) | MIC (Staphylococcus aureus [22])
2: Ratio (Staphylococcus aureus [4]) | Ratio (Staphylococcus aureus [5]) | Ratio (Staphylococcus aureus [6]) | Ratio (Staphylococcus aureus [7]) | Ratio (Staphylococcus aureus [9]) | Ratio (Staphylococcus aureus [10]) | Ratio (Staphylococcus aureus [12]) | Ratio (Staphylococcus aureus [17]) | Ratio (Staphylococcus aureus [19]) | Ratio (Staphylococcus aureus [21]) | Ratio (Staphylococcus aureus [23]) | Ratio (Staphylococcus aureus [26])

— ChEMBL document CHEMBL3576778, “Structure-Activity Relationship Studies of a Series of Semisynthetic Lipopeptides Leading to the Discovery of Surotomycin, a Novel Cyclic Lipopeptide Being Developed for the Treatment of Clostridium difficile-Associated Diarrhea” (J Med Chem, 2015)
